# pKi: −log10 of the molar value.
# Target: T1, human cathepsin K (Homo sapiens, UniProt P43235)
# T1 construct: The proform of cathepsin K was converted to mature cathepsin K by brief exposure to pH 4; made in house; host or cells: baculovirus; Trichoplusia ni High Five cells (virus raised in Sf-9)
# T1 sequence (P43235 115-329): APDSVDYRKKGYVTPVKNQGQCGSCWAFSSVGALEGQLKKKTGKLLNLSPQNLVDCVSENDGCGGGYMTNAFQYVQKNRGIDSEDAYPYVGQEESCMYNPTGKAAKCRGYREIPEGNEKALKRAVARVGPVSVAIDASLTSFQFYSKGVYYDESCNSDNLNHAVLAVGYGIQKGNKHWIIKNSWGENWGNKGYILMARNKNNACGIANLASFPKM
# Assay: Cathepsin K inhibition assay, fluorogenic substrate Cbz-Phe-Arg-AMC, progress curve method
# Assay type: biochemical
# Settings: Table 1; human recombinant enzyme, pH 5.5, 30° C., 10 μM substrate; read-out: hCat K Ki
# Protocol: All assays for cathepsin K were carried out with human and rat recombinant enzyme. Assays for cathepsins S Et V were also carried out with human recombinant enzyme. Assays for human cathepsins B. H. and L were carried out with enzyme, purchased from Athens Research and Technology, Inc., prepared from human liver tissue. […] A stock substrate solution of Cbz-Phe-Arg-AMC was prepared at a concentration of 50 mM in dimethyl sulfoxide. This substrate was diluted into the assay for a final substrate concentration of 10 μM in the rat cathepsin K, human cathepsin K, and human cathepsin B assays; a final substrate concentration of 5 μM in the human cathepsin L assay; and a final substrate concentration of 2 μM in the human cathepsin V assay.
# All assays contained 10% dimethyl sulfoxide. […] All assays were conducted at 30° C. Product fluorescence (excitation at 360 nm; emission at 440 nm, (except cathepsin H which used excitation at 340 nm; emission at 420 nm)) was monitored with a PerSeptive Biosystems Cytofluor II fluorescence plate reader. Product progress curves were generated over 2.3 h monitoring the formation of 7-amino-4-methylcoumarin product (or β-naphthalamide for cathepsin H).
# Two liters of Spodoptera frugiperda (Sf-9) cells (ATCC) were grown in Grace's Supplemented medium (Life Technologies) supplemented with 2 g/L glucose, 10% a fetal bovine serum (HyClone) and 0.10% pluronic F-68 (Life Technologies). […] The cells continued to grow for 72 h post-infection, before the virus was harvested by centrifugation at 1400× g for 30 min.
# One and one-half liters of Trichoplusia ni (T. ni) High Five (TM) cells [JRH Biosciences, Woodland, Calif. […] Media were separated from cells at a rate of 1 L/min using the Centritech 100 (TM) continuous-flow centrifuge (DuPont) operating at 200× g.
# Protein Purification: Media (human and rat) were filtered through a Whatman 3 filter, and then loaded onto a 25 mL Poros HS II (26 mm×47 mm) cation exchange column equilibrated in 25 mM sodium acetate at pH 5.5 (equilibration buffer). The column was washed until the absorbance reached the baseline value, and then the protein was eluted with a linear gradient from 0-2 M sodium chloride in the equilibration buffer. Column fractions were analyzed by SDS-PAGE, N-terminal sequencing, and mass spectrometry. Fractions containing the proform of cathepsin K were pooled and frozen at −80° C. The proform was concentrated in an Amicon Centriprep 10 and fractionated with a Superdex 75 column (26 mm×600 mm, Pharmacia) equilibrated in 400 mM sodium chloride, 25 mM sodium acetate at pH 5.5.
# Cathepsin K Activation: The proform of cathepsin K was converted to mature cathepsin K by brief exposure to pH 4 in the presence of 5 mM L-cysteine. Typically, 5 mM L-cysteine was added to 10 mL of approximately 1 mg/mL procathepsin K. One mL of this solution was diluted ten-fold into 450 mM sodium acetate at pH 4.0 containing 5 mM L-cysteine. This solution was reacted at 23° C. for 2 min before neutralization with 2 mL 1.8 M sodium acetate at pH 6.0. The neutralized sample was added to the remaining 9 mL of procathepsin K. The mixture was incubated at 4° C. for 2-3 days. The activated cathepsin K was chromatographed on a Poros HS II column as described above.
# Potential inhibitors were evaluated using the progress curve method. Assays were carried out in the presence of variable concentrations of test compound. Reactions were initiated by addition of buffered solutions of inhibitor and substrate to enzyme. Data analysis was conducted according to one of two procedures depending on the appearance of the progress curves in the presence of inhibitors. […] Ki values were calculated from IC50 values using equation 2 assuming a competitive model. [formula]
row,pKi,SMILES
1,9.00 to 11.00,"CCCC[C@H](NC(=O)O[C@H](c1cccc(-c2ccccc2)c1)C(C)(C)C)C(=O)C(=O)Nc1ccn[nH]1 [Example 42, (1S)-1-[1,1′-biphenyl]-3-yl-2,2-dimethylpropyl(1S)-1-[oxo(1H-pyrazol-5-ylamino)acetyl]pentylcarbamate]"
2,9.00 to 11.00,"CCCC[C@H](NC(=O)O[C@H](Cn1cc(-c2ccc(C(F)(F)F)cc2)cn1)C(C)(C)C)C(=O)C(=O)Nc1ccn[nH]1 [Example 14, (1S)-2,2-dimethyl-1-({4-[4-(trifluoromethyl)phenyl]-1H-pyrazol-1-yl}methyl)propyl(1S)-1-[oxo(1H-pyrazol-5-ylamino)acetyl]pentylcarbamate]"
3,9.00 to 11.00,"CCCC[C@H](NC(=O)O[C@H](c1nnc(-c2cccnc2)o1)C(C)(C)C)C(=O)C(=O)Nc1ccn[nH]1 [Example 52, (1S)-2,2-dimethyl-1-[5-(3-pyridinyl)-1,3,4-oxadiazol-2-yl]propyl(1S)-1-[oxo(1H-pyrazol-5-ylamino)acetyl]pentylcarbamate]"
4,9.00 to 11.00,"CCCC[C@H](NC(=O)O[C@H](COc1ccc(C(N)=O)cc1)C(C)(C)C)C(=O)C(=O)Nc1ccn[nH]1 [Example 48, (1S)-1-{[4-(aminocarbonyl)phenoxy]methyl}-2,2-dimethylpropyl(1S)-1-[oxo(1H-pyrazol-5-ylamino)acetyl]pentylcarbamate]"
5,9.00 to 11.00,"CCCC[C@H](NC(=O)O[C@H](Cc1nnc(-c2ccc(F)cc2)o1)C(C)(C)C)C(=O)C(=O)N[C@H](C)c1ccccc1 [Example 19, (1R)-1-{[5-(4-fluorophenyl)-1,3,4-oxadiazol-2-yl]methyl}-2,2-dimethylpropyl(1S)-1-(oxo{[(1R)-1-phenylethyl]amino}acetyl)pentylcarbamate]"
6,7.00 to 9.00,"CCCC[C@H](NC(=O)O[C@@H](c1nnc(-c2cccnc2)o1)C(C)(C)C)C(=O)C(=O)Nc1ccn[nH]1 [Example 53, (1R)-2,2-dimethyl-1-[5-(3-pyridinyl)-1,3,4-oxadiazol-2-yl]propyl(1S)-1-[oxo(1H-pyrazol-5-ylamino)acetyl]pentylcarbamate]"
7,9.00 to 11.00,"CCCC[C@H](NC(=O)O[C@H](Cn1cnc(-c2cc(C(F)(F)F)cc(C(F)(F)F)c2)c1)C(C)(C)C)C(=O)C(=O)Nc1ccn[nH]1 [Example 50, (1S)-1-({4-[3,5-bis(trifluoromethyl)phenyl]-1H-imidazol-1-yl}methyl)-2,2-dimethylpropyl(1S)-1-[oxo(1H-pyrazol-5-ylamino)acetyl]pentylcarbamate]"
8,9.00 to 11.00,"CCCC[C@H](NC(=O)O[C@H](Cc1nnc(-c2ccc(C(F)(F)F)cc2)o1)C(C)(C)C)C(=O)C(=O)NN1CCOC1=O [Example 28, (1R)-2,2-dimethyl-1-({5-[4-(trifluoromethyl)phenyl]-1,3,4-oxadiazol-2-yl}methyl)propyl(1S)-1-{oxo[(2-oxo-1,3-oxazolidin-3-yl)amino]acetyl}pentyl carbamate]"
9,7.00 to 9.00,"CCCC[C@H](NC(=O)O[C@H](Cn1ccc(-c2ccc(C(F)(F)F)cc2)n1)C(C)(C)C)C(=O)C(=O)NCc1ccno1 [Example 36, (1S)-2,2-dimethyl-1-({3-[4-(trifluoromethyl)phenyl]-1H-pyrazol-1-yl}methyl)propyl(1S)-1-[[(5-isoxazolylmethyl)amino](oxo)acetyl]pentylcarbamate]"
10,7.00 to 9.00,"CCCC[C@H](NC(=O)O[C@H](Cn1cnc(-c2ccc(C(F)(F)F)cc2)c1)C(C)(C)C)C(=O)C(=O)Nc1nccs1 [Example 51, (1S)-2,2-dimethyl-1-({4-[4-(trifluoromethyl)phenyl]-1H-imidazol-1-yl}methyl)propyl(1S)-1-[oxo(1,3-thiazol-2-ylamino)acetyl]pentylcarbamate]"
11,9.00 to 11.00,CCCC[C@H](NC(=O)O[C@H](Cc1nnc(-c2ccc(C(F)(F)F)cc2)o1)C(C)(C)C)C(=O)C(=O)Nc1ccn[nH]1 [Example 3]
12,9.00 to 11.00,"CCCC[C@H](NC(=O)O[C@H](Cn1ccc(C(F)(F)F)n1)C(C)(C)C)C(=O)C(=O)Nc1ccn[nH]1 [Example 29, (1S)-2,2-dimethyl-1-{[3-(trifluoromethyl)-1H-pyrazol-1-yl]methyl}propyl(1S)-1-[oxo(1H-pyrazol-5-ylamino)acetyl]pentylcarbamate]"
13,9.00 to 11.00,"CCCC[C@H](NC(=O)O[C@H](CCc1nnc(-c2ccc(C(F)(F)F)cc2)o1)C(C)(C)C)C(=O)C(=O)Nc1ccn[nH]1 [Example 26, (1R)-2,2-dimethyl-1-(2-{5-[4-(trifluoromethyl)phenyl]-1,3,4-oxadiazol-2-yl}ethyl)propyl(1S)-1-[oxo(1H-pyrazol-5-ylamino)acetyl]pentylcarbamate]"
14,9.00 to 11.00,"CCCC[C@H](NC(=O)O[C@H](Cn1ccc(-c2cccnc2)n1)C(C)(C)C)C(=O)C(=O)Nc1nccs1 [Example 33, (1S)-2,2-dimethyl-1-{[3-(3-pyridinyl)-1H-pyrazol-1-yl]methyl}propyl(1S)-1-[oxo(1,3-thiazol-2-ylamino)acetyl]pentylcarbamate]"
15,5.00 to 7.00,"CCCC[C@H](NC(=O)O[C@@H](Cc1nnc(-c2ccccc2)o1)C(C)(C)C)C(=O)C(=O)N[C@H](C)c1ccccc1 [Example 16, (1S)-2,2-dimethyl-1-[(5-phenyl-1,3,4-oxadiazol-2-yl)methyl]propyl (1S)-1-(oxo{[(1R)-1-phenylethyl]amino}acetyl)pentylcarbamate]"
16,5.00 to 7.00,"CCCC[C@H](NC(=O)O[C@@H](Cc1nnc(-c2ccccc2)o1)C(C)C)C(=O)C(=O)N[C@H](C)c1ccccc1 [Example 11, (1S)-2-methyl-1-[(5-phenyl-1,3,4-oxadiazol-2-yl)methyl]propyl(1S)-1-(oxo{[(1R)-1-phenylethyl]amino}acetyl)pentylcarbamate]"
17,9.00 to 11.00,"CCCC[C@H](NC(=O)O[C@H](COc1ccc(-n2ccnc2)cc1)C(C)(C)C)C(=O)C(=O)Nc1ccn[nH]1 [Example 49, (1S)-1-{[4-(1H-imidazol-1-yl)phenoxy]methyl}-2,2-dimethylpropyl(1S)-1-[oxo(1H-pyrazol-5-ylamino)acetyl]pentylcarbamate]"
18,5.00 to 7.00,"CCCC[C@H](NC(=O)O[C@@H](c1nc2ccccc2s1)C(C)(C)C)C(=O)C(=O)Nc1ccn[nH]1 [Example 32, (1R)-1-(1,3-benzothiazol-2-yl)-2,2-dimethylpropyl(1S)-1-[oxo(1H-pyrazol-5-ylamino)acetyl]pentylcarbamate]"
19,7.00 to 9.00,"CCCC[C@H](NC(=O)O[C@H](Cc1nnc(-c2ccc(F)cc2)o1)C(C)(C)C)C(=O)C(=O)NCc1ccncc1 [Example 24, (1R)-1-{[5-(4-fluorophenyl)-1,3,4-oxadiazol-2-yl]methyl}-2,2-dimethylpropyl(1S)-1-{oxo[(4-pyridinylmethyl)amino]acetyl}pentylcarbamate]"
20,5.00 to 7.00,"CCCC[C@H](NC(=O)O[C@@H](c1nnc(-c2ccc(C(F)(F)F)cc2)o1)C(C)(C)C)C(=O)C(=O)Nc1ccn[nH]1 [Example 40, (1R)-2,2-dimethyl-1-{5-[4-(trifluoromethyl)phenyl]-1,3,4-oxadiazol-2-yl}propyl(1S)-1-[oxo(1H-pyrazol-5-ylamino)acetyl]pentylcarbamate]"
21,9.00 to 11.00,"CCCC[C@H](NC(=O)O[C@H](Cn1cnc(-c2ccccc2)c1)C(C)(C)C)C(=O)C(=O)N[C@H](C)c1ccccc1 [Example 12, (1S)-2,2-dimethyl-1-[(4-phenyl-1H-imidazol-1-yl)methyl]propyl(1S)-1-(oxo{[(1R)-1-phenylethyl]amino}acetyl)pentylcarbamate]"

# From US20050107616A1, “Alpha-ketoamide derivatives as cathepsin k inhibitors” (priority 2001, published 2005)
